Measured values as given in US20040086904A1, “Screening assay for cotranslational translocation interfering compounds” (priority 2001, published 2004).

Columns and labels:
[1] = target: T1, VCAM-1 (Homo sapiens, UniProt P19320)
T1 sequence (P19320 25-739): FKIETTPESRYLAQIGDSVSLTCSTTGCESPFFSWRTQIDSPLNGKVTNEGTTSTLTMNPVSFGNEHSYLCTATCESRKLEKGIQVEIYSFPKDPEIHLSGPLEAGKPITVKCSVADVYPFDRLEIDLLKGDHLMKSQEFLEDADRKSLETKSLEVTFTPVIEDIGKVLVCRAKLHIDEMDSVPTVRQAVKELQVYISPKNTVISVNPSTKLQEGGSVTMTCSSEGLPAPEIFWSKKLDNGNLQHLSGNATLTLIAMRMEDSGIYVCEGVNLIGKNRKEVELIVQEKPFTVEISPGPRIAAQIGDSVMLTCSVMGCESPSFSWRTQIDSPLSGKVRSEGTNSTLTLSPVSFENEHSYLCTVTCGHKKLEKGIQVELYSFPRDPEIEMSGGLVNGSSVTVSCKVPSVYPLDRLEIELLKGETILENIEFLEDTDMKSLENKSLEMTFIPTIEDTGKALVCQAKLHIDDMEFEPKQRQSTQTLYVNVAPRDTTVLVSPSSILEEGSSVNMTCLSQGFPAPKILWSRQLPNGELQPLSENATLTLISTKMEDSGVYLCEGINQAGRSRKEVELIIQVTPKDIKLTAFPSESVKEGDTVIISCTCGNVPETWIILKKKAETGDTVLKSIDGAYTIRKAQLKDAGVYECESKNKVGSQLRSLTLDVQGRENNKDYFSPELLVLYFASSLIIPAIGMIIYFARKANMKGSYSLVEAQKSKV
Procedure: Cell-free translations are carried out in the coupled TNT reticulocyte lysate system (Promega) using bacteriophage T7 polymerase according to the suppliers recommendations in a final volume of 25 μl and in the presence of [^35S]-methionine (Redivue, 10 mCi/ml, Amersham). To study cotranslational translocation across the ER membrane dog pancreatic microsomes (Promega) are present during translation reactions at concentrations between 1 to 2.5 μl per 25 μl reaction mixture. After translation/translocation, 2.5 μl of the reaction mixture are denatured in SDS loading buffer (12.5 mM Tris-HCl, pH 6.8, 80 μM EDTA, 26 mM DTT, 1% SDS, 100 g/ml bromphenol blue, 0.01% NaN3) for 5 minutes at 95° and subjected to SDS-PAGE (4-20% gradient or 15% Excel gels, Pharmacia). Gels are analyzed by autoradiography and quantitated using an Instant Phosphoimager (Packard). […]
To investigate the possibility that the candidate compound is interfering at this early stage of protein expression the effect of the drug on the process of cotranslational translocation in a cell-free assay system is analysed. […]

[2] = target: T2, E-Selectin (Homo sapiens, UniProt P16581); assay: Transient expression of E-Selectin in HEK293 cells, Western blot / immunoblot; assay type: cell-based; conditions: transiently transfected HEK293 cells, 48 hours post-transfection, increasing concentrations
T2 construct: Full length cDNAs of the adhesion molecules VCAM-1, ICAM-1 and E-Selectin are transcribed and translated; host or cells: cell-free: coupled TNT reticulocyte lysate (Promega) with dog pancreatic microsomes
T2 sequence (P16581 22-610): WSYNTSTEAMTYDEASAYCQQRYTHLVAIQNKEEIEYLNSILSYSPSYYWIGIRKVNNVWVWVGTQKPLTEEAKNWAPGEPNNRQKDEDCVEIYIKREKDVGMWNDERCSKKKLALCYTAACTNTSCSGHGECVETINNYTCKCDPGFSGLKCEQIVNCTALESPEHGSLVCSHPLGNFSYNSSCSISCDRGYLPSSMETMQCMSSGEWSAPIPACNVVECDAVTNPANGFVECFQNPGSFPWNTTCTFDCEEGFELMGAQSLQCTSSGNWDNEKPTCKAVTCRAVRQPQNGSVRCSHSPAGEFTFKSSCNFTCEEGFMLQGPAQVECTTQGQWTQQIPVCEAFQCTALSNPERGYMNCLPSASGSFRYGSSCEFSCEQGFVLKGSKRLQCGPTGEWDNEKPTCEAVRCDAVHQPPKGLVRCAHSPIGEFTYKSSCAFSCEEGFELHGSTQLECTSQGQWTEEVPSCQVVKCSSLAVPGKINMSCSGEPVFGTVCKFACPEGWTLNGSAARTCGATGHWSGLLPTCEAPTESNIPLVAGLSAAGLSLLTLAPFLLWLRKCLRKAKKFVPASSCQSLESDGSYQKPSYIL
Procedure: (§1) The E-Selectin and ICAM-1 expression vectors pCDM8-E-selectin and pCDM8-ICAM-1 allowing transient expression in mammalian cells and cell-free translation are obtained from R&D Systems. VCAM-1 cDNA is obtained by reverse transcription of total RNA from TNF-α stimulated primary human umbilical vein endothelial cells (HUVEC) as follows. After extraction of total RNA with Trizol (GibcoBRL) according to the suppliers recommendations, reverse transcription (RT) PCR on approximately 3 μg total HUVEC RNA is performed using the Advantage High Fidelity PCR kit (CLONTECH) under standard conditions with N- and C-terminal VCAM-1-specific sense and antisense oligonucleotide primers, respectively. Primers are tailed, introducing a Kpnl restriction site 5′ of the Kozak sequence and a Xhol site 3′ of the stop codon. Placental SEAP is amplified accordingly by PCR using plasmid pBC 12/PLAP489 (Berger et al., 1988) as a template and similar tailed SEAP-specific sense and antisense oligonuclotide primers. The SEAP and VCAM-1 cDNAs are isolated and cloned into the pCR2.1 vector (TA cloning kit, Invitrogen). […] Approximately equal molar quantities of each PCR product A and B are phosphorylated and ligated. […]
(§2) Protein expression in cells is analyzed by Western blot and subsequent immunoblot analysis. […]

[3] = target: T1, VCAM-1; assay: Transient expression of VCAM-1 in HEK293 cells, Western blot / immunoblot; assay type: cell-based; parameters: expressed in transfected cells; host or cells: HEK293
Procedure: as §1, §2

[4] = test system: VCAMSP-SEAP construct; assay: SP-SEAP assay, secretion of SEAP into the medium; assay type: cell-based; conditions: transiently transfected cells, increasing concentrations
Procedure: (§3) Cell Culture and Transient Transfections HEK293 cells are maintained in Dulbeccos' modified Eagle's medium (DMEM, Gibco-BRL), supplemented with 10% heat-inactivated fetal calf serum (FCS, Bio-Whittaker) and 100 Units/ml each of penicillin (BC) and streptomycin (Gibco-BRL) at 37° in a 5% humidified CO2 incubator. HUVEC cells are cultured in endothelial cell basal medium (EBM, Clonetics Corp.) supplemented with 10% FCS, 5×10^−4 M dibutyryl cAMP (Sigma), 1 μg/ml hydrocortisone (Sigma) and 10 ng/ml human EGF (Boehringer) at 37° in a 5% humidified CO2 incubator. VCAM-1 production is stimulated by incubation with 100U/ml TNF-α for ca. 8 hours. For transient transfection, HEK293 cells are seeded into 6-well or 24-well cell culture dishes at a density of 6×10^5 cells/well or 1.5×10^5 cells/well, respectively, the day prior to transfection and grown to 50-70% confluency. Cells are transfected with 2 μg or 1 μg of plasmid DNA, respectively, using the SuperFect reagent (Qiagen) according to the supplier's recommendations. Cells are incubated either without or with addition of a candidate compound, respectively, at concentrations indicated for ca. 24 to 48 hours. […]
(§4) Human placental SEAP levels in cell supernatants are determined using either a fluorescence-based assay or an assay that measures light absorbance at 405 nm accompanying hydrolysis of pNPP according to the method described (Berger et al., 1988). […] 20 μl of 120 mM pNPP in 1x SEAP buffer prewarmed to 37° is added and the change in absorbance at 37° is plotted. […] For determination of SEAP levels by a fluorescence-based assay the Atto Phos AP Fluorescent Substrate Sysem (Promega) is used according to the manufacturer's instructions.
(§5) For the establishment and as a first proof of principle of an assay (system) according to the present invention, SP-reporter gene fusion constructs are generated using the SP of compound sensitive and insensitive proteins, respectively, and the mature sequence of placental SEAP as the reporter gene (see FIG. 5). […] Finally, secretion of the reporter SEAP protein into the medium is determined. […]

[5] = test system: VCAMSP(15+4)-SEAP construct; assay: SP-SEAP assay, secretion of SEAP into the medium; assay type: cell-based; conditions: transiently transfected cells, increasing concentrations, dose-dependent
Procedure: as §3, §4, §5

[6] = test system: E-SelectinSP-SEAP fusion protein; assay: SP-SEAP assay, secretion of SEAP into the medium; assay type: cell-based; conditions: transiently transfected cells, increasing concentrations
Procedure: as §3, §4, §5

[7] = target: T3, ICAM-1 (Homo sapiens, UniProt P05362); assay: Cell-free translation/translocation assay, ICAM-1; assay type: biochemical; conditions: reticulocyte lysate with dog pancreatic microsomes
T3 construct: Full length cDNAs of the adhesion molecules VCAM-1, ICAM-1 and E-Selectin are transcribed and translated; host or cells: cell-free: coupled TNT reticulocyte lysate (Promega) with dog pancreatic microsomes
Text: Proteins are radioactively labelled and visualised by autoradlography.

T3 sequence (P05362 28-532): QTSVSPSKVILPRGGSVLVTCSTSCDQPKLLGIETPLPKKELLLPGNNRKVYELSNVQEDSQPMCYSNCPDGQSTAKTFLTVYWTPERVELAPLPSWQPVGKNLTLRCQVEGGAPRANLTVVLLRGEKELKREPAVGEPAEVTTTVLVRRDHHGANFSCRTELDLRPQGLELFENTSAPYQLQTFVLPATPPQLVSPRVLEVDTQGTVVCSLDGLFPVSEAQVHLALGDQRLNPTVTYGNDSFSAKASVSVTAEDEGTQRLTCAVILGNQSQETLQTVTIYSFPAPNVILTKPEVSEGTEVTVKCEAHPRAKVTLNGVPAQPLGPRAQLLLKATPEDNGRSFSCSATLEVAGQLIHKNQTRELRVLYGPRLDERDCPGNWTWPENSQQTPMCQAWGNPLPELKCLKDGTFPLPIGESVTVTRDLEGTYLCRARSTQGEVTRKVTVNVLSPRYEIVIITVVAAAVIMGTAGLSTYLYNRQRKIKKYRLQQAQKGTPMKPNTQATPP

- core-glycosylated and protease-protected form of VCAM-1 (translocation across microsomal membranes) [1]: inhibited by increasing concentrations
- synthesis of E-Selectin [2]: not-affected
- IC50 ([3]; transiently transfected HEK293 cells, 48 hours post-transfection, Western blot quantified against β-actin, read-out: concentration inhibiting 50% of VCAM-1 glycoprotein synthesis): < 5 nM
- concentration needed to inhibit translocation of ICAM-1, relative to VCAM-1 [7]: 20 to 30 times
Compound: CCCCC(C)CC1NC(=O)C(Cc2cn(OC)c3ccccc23)N(C)C(=O)C(CC(C)C)NC(=O)C(CC(C)C)N(C)C(=O)C(CC(C)CCCC)NC(=O)C(CCC(=O)OCCC)OC(=O)C(C)N(C)C1=O (centres unmarked) [CP]
- VCAM-1 protein in transfected cells co-treated with lactacystin ([3]; cells transiently transfected with VCAM-1 cDNA, co-treatment with lactacystin 5 μM, band identified as full length, non-glycosylated VCAM-1): accumulation of a polypeptide moiety of lower molecular weight
- sensitivity of SEAP secretion to the compound [4]: slight sensitivity
- sensitivity of SEAP secretion to the compound [5]: full sensitivity
- sensitivity of SEAP secretion to the compound [6]: compound-insensitive
